Values quoted from earlier work in patent US20200039732A1, “DEVICES FOR DISPENSING A HYDROFLUOROOLEFIN VAPOCOOLANT COMPOSITION AS AN AEROSOL” (GEBAUER COMPANY, priority 2016, published 2020).
Like-named read-outs stand apart in the source and are kept apart here. Blank lines part the entries; values can stand above or below the compound they belong to.

Settings: for Liquid Viscosity / Surface Tension: at 20° C.

Compound: CCCl [Ethyl Chloride, chloroethane]
Pvap (25° C.): 0.135 MPa
Pvap (80° C.): 0.745 MPa
Liquid Viscosity: 0.279 cP
Surface Tension: 19.5 dyne/cm

Compound: FC(F)(F)/C=C/Cl [HCFO-1233zd, trans-1-chloro-3,3,3-trifluoropropene]
Pvap (25° C.): 0.108 MPa
Pvap (80° C.): 0.650 MPa
Liquid Viscosity: 0.319 cP
Surface Tension: 14.039 dyne/cm

Compound: F/C=C/C(F)(F)F [HFO-1234ze, trans-1,3,3,3-tetrafluoroprop-1-ene]
Pvap (25° C.): 0.484 MPa
Pvap (80° C.): 2.01 MPa
Liquid Viscosity: 0.489 cP
Surface Tension: 13.3 dyne/cm

Compound: CC(C)C [Iso-Butane, isobutane]
Pvap (25° C.): 0.319 MPa
Pvap (80° C.): 1.5 MPa
Liquid Viscosity: 0.156 cP
Surface Tension: 10.3 dyne/cm

Results, then the compound that gave them:

Pvap (25° C.): 0.665 MPa
Pvap (80° C.): 2.63 MPa
Liquid Viscosity: 0.202 cP
Surface Tension: 8.69 dyne/cm
Compound: FCC(F)(F)F [HFC-134a, 1,1,1,2-tetrafluoroethane]

Pvap (25° C.): 0.124 MPa
Pvap (80° C.): 0.789 MPa
Liquid Viscosity: 0.402 cP
Surface Tension: 13.6 dyne/cm
Compound: FC(F)CC(F)(F)F [HFC-245fa, 1,1,1,3,3-pentafluoropropane]
